Measurements published in ChEMBL document CHEMBL5728630, “Aryl, heteroaryl, and heterocyclic pharmaceutical compounds for treatment of medical disorders” (2021).

Molecular target: Complement factor D (Homo sapiens, UniProt P00746)
Assay: Factor D Assay: Human Factor D (purified from human serum, Complement Technology, Inc.) at 80 nM final concentration is incubated with test compound at various concentrations for 5 min at room temperature in 50 mM Tris, 1M NaCl, pH 7.5. A synthetic substrate Z-L-Lys-SBz and DTNB (Ellman's reagent) are added to final concentrations of 100 μM each. Absorbance at 405 nm (A405) is recorded at 30 second intervals for 30 min using a microplate spectrophotometer. IC50 values are calculated by nonlinear regression of complement Factor D reaction rates as a function of test compound concentration.

Chain of Complement factor D (P00746 whole entry): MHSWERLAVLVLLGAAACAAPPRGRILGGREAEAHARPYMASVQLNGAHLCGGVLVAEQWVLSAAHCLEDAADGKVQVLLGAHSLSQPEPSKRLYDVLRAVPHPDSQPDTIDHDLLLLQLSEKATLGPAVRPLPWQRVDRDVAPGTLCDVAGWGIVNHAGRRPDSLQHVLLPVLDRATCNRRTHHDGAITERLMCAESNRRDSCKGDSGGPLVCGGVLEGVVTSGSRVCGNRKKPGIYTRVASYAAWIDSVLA

Row | SMILES | IC50 [µM]
1 | CC(=O)c1nn(CC(=O)N2[C@H](C(=O)NCc3ccncc3)C[C@@]3(C)C[C@@H]23)c2c(C)cc(-c3cnc(C)nc3)cc12 | < 1
2 | CC(=O)c1nn(CC(=O)N2[C@H](C(=O)Nc3nc(Br)ccc3C)C[C@@]3(C)C[C@@H]23)c2c(C(C)F)cc(-c3cnc(C)nc3)cc12 (some centres not stated) | < 1
3 | CC(=O)c1nn(CC(=O)N2[C@H](C(=O)Nc3cnc(C)c(Br)n3)C[C@@]3(C)C[C@@H]23)c2c(C)cc(-c3cnc(C)nc3)cc12 | < 1
4 | CC(=O)c1cn(CC(=O)N2[C@H](C(=O)Nc3nc(Br)ccc3C)C[C@@]3(C)C[C@@H]23)c2cnc(-c3cnc(C)nc3)cc12 | < 1
5 | CC(=O)c1nn(CC(=O)N2[C@H](C(=O)N[C@@H](C)C(F)=C(C)C)C[C@@]3(C)C[C@@H]23)c2cnc(-c3cnc(C)nc3)cc12 | < 1
6 | CC(=O)c1nn(CC(=O)N2[C@H](C(=O)Nc3nc(Br)ccc3C)C[C@@]3(Cn4cc(C5CC5)nn4)C[C@@H]23)c2cnc(-c3cnc(C)nc3)cc12 | < 1
7 | CC(=O)c1nn(CC(=O)N2[C@H](C(=O)Nc3nc(Br)ccc3C)C[C@@]3(CF)C[C@@H]23)c2cnc(-c3cnc(C)nc3)cc12 | < 1
8 | CC(=O)c1nn(CC(=O)N2[C@H](C(=O)NCc3cccc(C)c3)C[C@@]3(C)C[C@@H]23)c2c(C)cc(-c3cnc(C)nc3)cc12 | < 1
9 | CC(=O)c1nn(CC(=O)N2[C@H](C(=O)Nc3nc(Br)ccc3CN3CCc4ccccc4C3)C[C@@]3(C)C[C@@H]23)c2cnc(-c3cnc(C)nc3)cc12 | < 1
10 | CC(=O)c1nn(CC(=O)N2[C@H](C(=O)NCc3ccccc3)C[C@@]3(C)C[C@@H]23)c2ccc(-c3cnc(C)nc3)cc12 | < 1
11 | CC(=O)c1nn(CC(=O)N2[C@H](C(=O)Nc3nc(Br)ccc3COCCF)C[C@@]3(C)C[C@@H]23)c2cnc(-c3cnc(C)nc3)cc12 | < 1
12 | CC(=O)c1nn(CC(=O)N2[C@H](C(=O)Nc3nc(Br)ccc3C)C[C@@]3(C)C[C@@H]23)c2cnc(-c3ccc(C)nc3F)cc12 | < 1
13 | CC(=O)c1nn(CC(=O)N2[C@H](C(=O)NCc3ccccn3)C[C@@]3(C)C[C@@H]23)c2c(C)cc(-c3cnc(C)nc3)cc12 | < 1
14 | CCCCNC(=O)[C@@H]1C[C@@]2(C)C[C@H]2N1C(=O)Cn1nc(C(C)=O)c2cc(-c3cnc(C)nc3)cc(C)c21 | < 1
15 | CC(=O)c1nn(CC(=O)N2C[C@H](F)C[C@H]2C(=O)Nc2nc(Br)ccc2C)c2ccc(-c3cnc(OC4CS(=O)(=O)C4)nc3)cc12 | < 1
16 | C=Cc1nn(CC(=O)N2[C@H](C(=O)Nc3nc(Br)ccc3C)C[C@@]3(C)C[C@@H]23)c2cnc(-c3cnc(C)nc3)cc12 | < 1
17 | CC(=O)c1nn(CC(=O)N2[C@H](C(=O)NCc3cccnc3)C[C@@]3(C)C[C@@H]23)c2c(C)cc(-c3cnc(C)nc3)cc12 | < 1
18 | CC(=O)c1nn(CC(=O)N2[C@H](C(=O)Nc3cc(C)cc(Br)n3)C[C@@]3(C)C[C@@H]23)c2c(C)nc(-c3cnc(C)nc3)cc12 | < 1
19 | COC(=O)Cc1ccc(Br)nc1NC(=O)[C@@H]1C[C@@H](F)CN1C(=O)Cn1nc(C(C)=O)c2cc(-c3cnc(C)nc3)ccc21 | < 1
20 | CNC(=O)c1nn(CC(=O)N2[C@H](C(=O)Nc3nc(Br)ccc3C)C[C@@]3(C)C[C@@H]23)c2ccc(-c3cnc(C)nc3)cc12 | < 1
21 | Cc1ncc(-c2cc(C)c3c(c2)c(C2COC2)nn3CC(=O)N2[C@H](C(=O)Nc3nc(Br)ccc3C)C[C@@]3(C)C[C@@H]23)cn1 | < 1

Row | SMILES | IC50 [µM]
22 | CC(=O)c1nn(CC(=O)N2[C@H](C(=O)Nc3cc(F)cc(Br)n3)C[C@@]3(C)C[C@@H]23)c2c(C)nc(-c3cnc(C)nc3)cc12 | < 1
23 | Cc1ncc(-c2ccc3c(c2)c(C(N)=O)nn3CC(=O)N2[C@H](C(=O)Nc3nc(Br)ccc3C)C[C@@]3(C)C[C@@H]23)cn1 | < 1
24 | CC(=O)c1nn(CC(=O)N2[C@H](C(=O)Nc3cccc(Br)n3)C[C@@]3(C)C[C@@H]23)c2ccc(-c3cnc(O)nc3)cc12 | < 1
25 | CC(=O)c1nn(CC(=O)N2[C@H](C(=O)Nc3nc(Br)ccc3C)C[C@@]3(C)C[C@@H]23)c2c(C)cc(-c3cnc(O)nc3)cc12 | < 1
26 | Cc1ncc(-c2ccc3c(c2)c(C(=O)NC(C)(C)C2CC2)nn3CC(=O)N2[C@H](C(=O)Nc3nc(Br)ccc3C)C[C@@]3(C)C[C@@H]23)cn1 | > 10
27 | CC(=O)c1nn(CC(=O)N2[C@H](C(=O)Nc3nc(Br)ccc3C)C[C@@]3(CN(C)C)C[C@@H]23)c2cnc(-c3cnc(C)nc3)cc12 | < 1
28 | CC(=O)c1nn(CC(=O)N2[C@H](C(=O)Nc3nc(Br)ccc3C)C[C@@]3(CN4CCCC4)C[C@@H]23)c2c(C)nc(-c3cnc(C)nc3)cc12 | < 1
29 | CC(=O)c1nn(CC(=O)N2[C@H](C(=O)Nc3nc(Br)ccc3C)C[C@@]3(CNC(=O)C4CCCC4(F)F)C[C@@H]23)c2c(C)cc(-c3cnc(C)nc3)cc12 (some centres not stated) | < 1
30 | CC(=O)c1nn(CC(=O)N2[C@H](C(=O)Nc3nc(Br)ccc3C)C[C@@]3(CC(F)F)C[C@@H]23)c2cnc(-c3cnc(C)nc3)cc12 | < 1
31 | CC(=O)c1nn(CC(=O)N2[C@H](C(=O)Nc3nc(Br)ccc3C)C[C@@]3(C4COC(C)(C)O4)C[C@@H]23)c2cnc(-c3cnc(C)nc3)cc12 (some centres not stated) | < 1
32 | CC(=O)c1nn(CC(=O)N2[C@H](C(=O)NCC(C)(C)C)C[C@@]3(C)C[C@@H]23)c2ccc(-c3cnc(C)nc3)cc12 | < 1
33 | CC(=O)c1nn(CC(=O)N2[C@H](C(=O)Nc3nc(C(F)(F)F)ccc3C)C[C@@]3(C)C[C@@H]23)c2cnc(-c3cnc(C)nc3)cc12 | < 1
34 | CC(=O)c1nn(CC(=O)N2[C@H](C(=O)Nc3cccc(Br)n3)C[C@@]3(C)C[C@@H]23)c2ccc(-c3cnc(OC4CS(=O)(=O)C4)nc3)cc12 | < 1
35 | CC(=O)c1nn(CC(=O)N2[C@H](C(=O)Nc3nc(Br)ccc3C3COC(C)(C)O3)C[C@@]3(C)C[C@@H]23)c2cnc(-c3cnc(C)nc3)cc12 (some centres not stated) | < 1
36 | CC(=O)c1nn(CC(=O)N2[C@H](C(=O)NCC(C)C)C[C@@]3(C)C[C@@H]23)c2c(C)cc(-c3cnc(C)nc3)cc12 | < 1
37 | CCC[C@@]12C[C@@H](C(=O)Nc3nc(Br)ccc3C)N(C(=O)Cn3nc(C(C)=O)c4cc(-c5cnc(C)nc5)ncc43)[C@@H]1C2 | < 1
38 | CC(=O)c1nn(CC(=O)N2[C@H](C(=O)NCc3ccccc3)C[C@@]3(C)C[C@@H]23)c2c(C)cc(-c3cnc(C)nc3)cc12 | < 1
39 | CC(=O)c1nn(CC(=O)N2[C@H]3C[C@@]3(C)C[C@H]2C(=O)Nc2nc(Br)ccc2C)c2ccc(-c3cnc(C)nc3)cc12 | < 1
40 | CC(=O)c1nn(CC(=O)N2[C@H](C(=O)Nc3nc(Br)ccc3CN3CCC(C)(F)CC3)C[C@@]3(C)C[C@@H]23)c2cnc(-c3cnc(C)nc3)cc12 | < 1
41 | CC(=O)c1nn(CC(=O)N2[C@H](C(=O)Nc3nc(Br)ccc3C)C[C@@]3(CN(C)C)C[C@@H]23)c2c(C)nc(-c3cnc(C)nc3)cc12 | < 1
42 | C#CCNC(=O)c1nn(CC(=O)N2[C@H](C(=O)Nc3nc(Br)ccc3C)C[C@@]3(C)C[C@@H]23)c2ccc(-c3cnc(C)nc3)cc12 | < 1

Row | SMILES | IC50 [µM]
43 | CC(=O)c1nn(CC(=O)N2[C@H](C(=O)Nc3nc(Br)ccc3C)C[C@@]3(C)C[C@@H]23)c2c(C(F)(F)F)nc(-c3cnc(C)nc3)cc12 | < 1
44 | CC(=O)c1nn(CC(=O)N2[C@H](C(=O)Nc3nc(Br)ccc3C)C[C@@]3(CC#N)C[C@@H]23)c2c(C)cc(-c3cnc(C)nc3)cc12 | < 1
45 | Cc1ncc(-c2cc3c(C(N)=O)nn(CC(=O)N4[C@H](C(=O)Nc5nc(Br)c(F)cc5C)C[C@@]5(C)C[C@@H]45)c3cn2)cn1 | < 1
46 | CCCNC(=O)[C@@H]1C[C@@]2(C)C[C@H]2N1C(=O)Cn1nc(C(C)=O)c2cc(-c3cnc(C)nc3)cc(C)c21 | < 1
47 | CCNC(=O)[C@@H]1C[C@@]2(C)C[C@H]2N1C(=O)Cn1nc(C(C)=O)c2cc(-c3cnc(C)nc3)cc(C)c21 | < 1
48 | COCc1ncc(-c2cc3c(C(C)=O)nn(CC(=O)N4[C@H](C(=O)Nc5nc(Br)ccc5C)C[C@@]5(C)C[C@@H]45)c3cn2)cn1 | < 1
49 | CCCCCNC(=O)[C@@H]1C[C@@]2(C)C[C@H]2N1C(=O)Cn1nc(C(C)=O)c2cc(-c3cnc(C)nc3)cc(C)c21 | < 1
50 | Cc1ncc(-c2cc(C)c3c(c2)c(I)nn3CC(=O)N2[C@H](C(=O)Nc3nc(Br)ccc3C)C[C@@]3(C)C[C@@H]23)cn1 | < 1
51 | COCc1ccc(Br)nc1NC(=O)[C@@H]1C[C@@]2(CNC(C)=O)C[C@H]2N1C(=O)Cn1nc(C(C)=O)c2cc(-c3cnc(C)nc3)ccc21 | < 1
52 | CC(=O)c1nn(CC(=O)N2[C@H](C(=O)Nc3nc(Br)ccc3C)C[C@@]3(C)C[C@@H]23)c2ccc(-c3cnc(O)nc3)cc12 | < 1
53 | CC(=O)c1nn(CC(=O)N2[C@H](C(=O)N[C@H](C)[C@H]3CC3(Cl)Cl)C[C@@]3(C)C[C@@H]23)c2cnc(-c3cnc(C)nc3)cc12 | < 1
54 | CC(=O)c1nn(CC(=O)N2[C@H](C(=O)Nc3nc(Br)ccc3C)C[C@@]3(C)C[C@@H]23)c2ccc(-c3cnc(OC4CS(=O)(=O)C4)nc3)cc12 | < 1
55 | CC(=O)c1nn(CC(=O)N2[C@H](C(=O)Nc3nc(Br)ccc3C)C[C@@]3(CC(O)CO)C[C@@H]23)c2cnc(-c3cnc(C)nc3)cc12 (some centres not stated) | < 1
56 | CC(=O)c1nn(CC(=O)N2[C@H]3C[C@@]3(CF)C[C@H]2C(=O)Nc2nc(Br)ccc2C)c2cnc(-c3cnc(C)nc3)cc12 | < 1
57 | CC(=O)c1nn(CC(=O)N2[C@H](C(=O)NCc3cccc(F)c3)C[C@@]3(C)C[C@@H]23)c2c(C)cc(-c3cnc(C)nc3)cc12 | < 1
58 | Cc1ncc(-c2ccc3c(c2)c(C(=O)NC(C)C2CC2)nn3CC(=O)N2[C@H](C(=O)Nc3nc(Br)ccc3C)C[C@@]3(C)C[C@@H]23)cn1 (some centres not stated) | < 1
59 | CC(=O)c1nn(CC(=O)N2[C@H](C(=O)Nc3nc(Br)ccc3CN3CCC(S(C)(=O)=O)CC3)C[C@@]3(C)C[C@@H]23)c2c(C)cc(-c3cnc(C)nc3)cc12 | < 1
60 | CC(=O)c1nn(CC(=O)N2[C@H](C(=O)Nc3nc(OC(F)(F)F)ccc3C)C[C@@]3(C)C[C@@H]23)c2c(C)nc(-c3cnc(C)nc3)cc12 | < 1
61 | CC(=O)c1nn(CC(=O)N2[C@H](C(=O)Nc3nc(Br)ccc3C)C[C@@]3(CCF)C[C@@H]23)c2cnc(-c3cnc(C)nc3)cc12 | < 1
62 | CC(=O)c1nn(CC(=O)N2[C@H](C(=O)Nc3nc(Br)ccc3C)C[C@@]3(C#N)C[C@@H]23)c2cnc(-c3cnc(C)nc3)cc12 | < 1
